Experimental data taken from ChEMBL document CHEMBL3885861, “Open TG-GATES”.

Species: Rattus norvegicus
Experiment: Open TG-GATES - Regimen: Single
Type: toxicity, organism-based, Sprague-Dawley
Design: regimen Single, gender Male, age 6 weeks
Conditions: in vivo, po, route gavage; for Bas / Eos / Fbg / Hb / Ht / Lym / MCH / MCHC / MCV / Mono / Neu / PT / Plat / RBC / Ret / WBC: tissue Blood; for KIDNEY_L / KIDNEY_R / KIDNEY_TOTAL: tissue Kidney; for LIVER: tissue Liver; for ALP / ALT / AST / BUN / CRE / Ca / Cl / DBIL / GLC / IP / K / LDH / Na / PL / RALB / TBIL / TC / TG / TP / gamma-GTP: tissue Plasma
[1] = 150 mg/kg, 3 h, dose level Middle
[2] = 150 mg/kg, 6 h, dose level Middle
[3] = 150 mg/kg, 9 h, dose level Middle
[4] = 150 mg/kg, 24 h, dose level Middle

CN(C)CCCN1c2ccccc2Sc2ccc(Cl)cc21 [CHLORPROMAZINE]
TERMINAL_BW (45 mg/kg, 9 h, dose level Low): 211.4 g
Bas (45 mg/kg, 9 h, dose level Low): 0%
Eos (45 mg/kg, 9 h, dose level Low): 1%
Fbg (45 mg/kg, 9 h, dose level Low): 219.2 mg/dL
Hb (45 mg/kg, 9 h, dose level Low): 12.8 g/dL
Ht (45 mg/kg, 9 h, dose level Low): 37.4%
Lym (45 mg/kg, 9 h, dose level Low): 76.6%
MCH (45 mg/kg, 9 h, dose level Low): 21.4 pg
MCHC (45 mg/kg, 9 h, dose level Low): 34.1%
MCV (45 mg/kg, 9 h, dose level Low): 62.7 fL
Mono (45 mg/kg, 9 h, dose level Low): 2.8%
Neu (45 mg/kg, 9 h, dose level Low): 18.8%
PT (45 mg/kg, 9 h, dose level Low): 12.3 s
Plat (45 mg/kg, 9 h, dose level Low): 128.5 x10_4/uL
RBC (45 mg/kg, 9 h, dose level Low): 596.6 x10_4/ul
Ret (45 mg/kg, 9 h, dose level Low): 8%
WBC (45 mg/kg, 9 h, dose level Low): 53.8 x10_2/uL
KIDNEY_L (45 mg/kg, 9 h, dose level Low): 0.9 g
KIDNEY_R (45 mg/kg, 9 h, dose level Low): 0.9 g
KIDNEY_TOTAL (45 mg/kg, 9 h, dose level Low): 1.8 g
LIVER (45 mg/kg, 9 h, dose level Low): 9.1 g
ALP (45 mg/kg, 9 h, dose level Low): 807.4 IU/L
ALT (45 mg/kg, 9 h, dose level Low): 28.2 IU/L
AST (45 mg/kg, 9 h, dose level Low): 63.2 IU/L
BUN (45 mg/kg, 9 h, dose level Low): 9.4 mg/dL
CRE (45 mg/kg, 9 h, dose level Low): 0.4 mg/dL
Ca (45 mg/kg, 9 h, dose level Low): 10.4 mg/dL
Cl (45 mg/kg, 9 h, dose level Low): 106.4 meq/L
DBIL (45 mg/kg, 9 h, dose level Low): 0.07 mg/dL
GLC (45 mg/kg, 9 h, dose level Low): 263.8 mg/dL
IP (45 mg/kg, 9 h, dose level Low): 9.6 mg/dL
K (45 mg/kg, 9 h, dose level Low): 3.6 meq/L
LDH (45 mg/kg, 9 h, dose level Low): 215.6 IU/L
Na (45 mg/kg, 9 h, dose level Low): 143.4 meq/L
PL (45 mg/kg, 9 h, dose level Low): 147.2 mg/dL
RALB (45 mg/kg, 9 h, dose level Low): 3.4 g/dL
TBIL (45 mg/kg, 9 h, dose level Low): 0.1 mg/dL
TC (45 mg/kg, 9 h, dose level Low): 84.4 mg/dL
TG (45 mg/kg, 9 h, dose level Low): 14 mg/dL
TP (45 mg/kg, 9 h, dose level Low): 5.6 g/dL
gamma-GTP (45 mg/kg, 9 h, dose level Low): 0.8 IU/L
TERMINAL_BW (45 mg/kg, 24 h, dose level Low): 211.2 g
Bas (45 mg/kg, 24 h, dose level Low): 1%
Eos (45 mg/kg, 24 h, dose level Low): 0.8%
Fbg (45 mg/kg, 24 h, dose level Low): 213.6 mg/dL
Hb (45 mg/kg, 24 h, dose level Low): 14.3 g/dL
Ht (45 mg/kg, 24 h, dose level Low): 42%
Lym (45 mg/kg, 24 h, dose level Low): 77.8%
MCH (45 mg/kg, 24 h, dose level Low): 21.7 pg
MCHC (45 mg/kg, 24 h, dose level Low): 33.9%
MCV (45 mg/kg, 24 h, dose level Low): 64.1 fL
Mono (45 mg/kg, 24 h, dose level Low): 2.4%
Neu (45 mg/kg, 24 h, dose level Low): 17.6%
PT (45 mg/kg, 24 h, dose level Low): 11.7 s
Plat (45 mg/kg, 24 h, dose level Low): 137.7 x10_4/uL
RBC (45 mg/kg, 24 h, dose level Low): 656.8 x10_4/ul
Ret (45 mg/kg, 24 h, dose level Low): 7.5%
WBC (45 mg/kg, 24 h, dose level Low): 87 x10_2/uL
KIDNEY_L (45 mg/kg, 24 h, dose level Low): 1 g
KIDNEY_R (45 mg/kg, 24 h, dose level Low): 1 g
KIDNEY_TOTAL (45 mg/kg, 24 h, dose level Low): 2 g
LIVER (45 mg/kg, 24 h, dose level Low): 9.2 g
ALP (45 mg/kg, 24 h, dose level Low): 861 IU/L
ALT (45 mg/kg, 24 h, dose level Low): 35.8 IU/L
AST (45 mg/kg, 24 h, dose level Low): 84 IU/L
BUN (45 mg/kg, 24 h, dose level Low): 21.8 mg/dL
CRE (45 mg/kg, 24 h, dose level Low): 0.5 mg/dL
Ca (45 mg/kg, 24 h, dose level Low): 10.7 mg/dL
Cl (45 mg/kg, 24 h, dose level Low): 104.6 meq/L
DBIL (45 mg/kg, 24 h, dose level Low): 0.062 mg/dL
GLC (45 mg/kg, 24 h, dose level Low): 217.8 mg/dL
IP (45 mg/kg, 24 h, dose level Low): 8.9 mg/dL
K (45 mg/kg, 24 h, dose level Low): 3.8 meq/L
LDH (45 mg/kg, 24 h, dose level Low): 239.4 IU/L
Na (45 mg/kg, 24 h, dose level Low): 144 meq/L
PL (45 mg/kg, 24 h, dose level Low): 132.2 mg/dL
RALB (45 mg/kg, 24 h, dose level Low): 3.7 g/dL
TBIL (45 mg/kg, 24 h, dose level Low): 0.1 mg/dL
TC (45 mg/kg, 24 h, dose level Low): 70.8 mg/dL
TG (45 mg/kg, 24 h, dose level Low): 76.4 mg/dL
TP (45 mg/kg, 24 h, dose level Low): 5.9 g/dL
gamma-GTP (45 mg/kg, 24 h, dose level Low): 1 IU/L
TERMINAL_BW [1]: 221.2 g
Bas [1]: 0%
Eos [1]: 0.8%
Fbg [1]: 211.2 mg/dL
Hb [1]: 12.6 g/dL
Ht [1]: 37.6%
Lym [1]: 73.4%
MCH [1]: 21.3 pg
MCHC [1]: 33.5%
MCV [1]: 63.4 fL
Mono [1]: 2.6%
Neu [1]: 22.2%
PT [1]: 12.4 s
Plat [1]: 120.3 x10_4/uL
RBC [1]: 593.4 x10_4/ul
Ret [1]: 8.4%
WBC [1]: 49.8 x10_2/uL
KIDNEY_L [1]: 0.9 g
KIDNEY_R [1]: 0.9 g
KIDNEY_TOTAL [1]: 1.8 g
LIVER [1]: 9.9 g
ALP [1]: 942 IU/L
ALT [1]: 33.4 IU/L
AST [1]: 71.4 IU/L
BUN [1]: 10.8 mg/dL
CRE [1]: 0.4 mg/dL
Ca [1]: 10.9 mg/dL
Cl [1]: 105.6 meq/L
DBIL [1]: 0.062 mg/dL
GLC [1]: 229.6 mg/dL
IP [1]: 10.3 mg/dL
K [1]: 3.8 meq/L
LDH [1]: 212.2 IU/L
Na [1]: 145.2 meq/L
PL [1]: 132.2 mg/dL
RALB [1]: 3.4 g/dL
TBIL [1]: 0.1 mg/dL
TC [1]: 69.8 mg/dL
TG [1]: 61.8 mg/dL
TP [1]: 5.4 g/dL
gamma-GTP [1]: 1 IU/L
TERMINAL_BW [2]: 215.2 g
Bas [2]: 0%
Eos [2]: 1%
Fbg [2]: 209.8 mg/dL
Hb [2]: 12.4 g/dL
Ht [2]: 36.4%
Lym [2]: 73%
MCH [2]: 21 pg
MCHC [2]: 34.2%
MCV [2]: 61.6 fL
Mono [2]: 2.4%
Neu [2]: 23%
PT [2]: 12.7 s
Plat [2]: 122.6 x10_4/uL
RBC [2]: 591.2 x10_4/ul
Ret [2]: 7.9%
WBC [2]: 46.9 x10_2/uL
KIDNEY_L [2]: 0.9 g
KIDNEY_R [2]: 1 g
KIDNEY_TOTAL [2]: 1.9 g
LIVER [2]: 9.4 g
ALP [2]: 685.2 IU/L
ALT [2]: 29.4 IU/L
AST [2]: 67.2 IU/L
BUN [2]: 9.4 mg/dL
CRE [2]: 0.4 mg/dL
Ca [2]: 10.4 mg/dL
Cl [2]: 105.6 meq/L
DBIL [2]: 0.064 mg/dL
GLC [2]: 246.2 mg/dL
IP [2]: 10.5 mg/dL
K [2]: 3.5 meq/L
LDH [2]: 214.6 IU/L
Na [2]: 144.4 meq/L
PL [2]: 127.6 mg/dL
RALB [2]: 3.3 g/dL
TBIL [2]: 0.1 mg/dL
TC [2]: 72.6 mg/dL
TG [2]: 26.2 mg/dL
TP [2]: 5.3 g/dL
gamma-GTP [2]: 0.8 IU/L
TERMINAL_BW [3]: 211.5 g
Bas [3]: 0%
Eos [3]: 1%
Fbg [3]: 222.4 mg/dL
Hb [3]: 12.4 g/dL
Ht [3]: 36.9%
Lym [3]: 71.8%
MCH [3]: 21.1 pg
MCHC [3]: 33.7%
MCV [3]: 62.7 fL
Mono [3]: 4%
Neu [3]: 20%
PT [3]: 12.7 s
Plat [3]: 126.5 x10_4/uL
RBC [3]: 590.6 x10_4/ul
Ret [3]: 8.3%
WBC [3]: 40.7 x10_2/uL
KIDNEY_L [3]: 0.9 g
KIDNEY_R [3]: 0.9 g
KIDNEY_TOTAL [3]: 1.8 g
LIVER [3]: 8.8 g
ALP [3]: 813.8 IU/L
ALT [3]: 29 IU/L
AST [3]: 64.2 IU/L
BUN [3]: 10.6 mg/dL
CRE [3]: 0.4 mg/dL
Ca [3]: 10.6 mg/dL
Cl [3]: 105.6 meq/L
DBIL [3]: 0.07 mg/dL
GLC [3]: 237.8 mg/dL
IP [3]: 10.8 mg/dL
K [3]: 3.6 meq/L
LDH [3]: 171.4 IU/L
Na [3]: 143.2 meq/L
PL [3]: 136.6 mg/dL
RALB [3]: 3.4 g/dL
TBIL [3]: 0.1 mg/dL
TC [3]: 81 mg/dL
TG [3]: 17.6 mg/dL
TP [3]: 5.4 g/dL
gamma-GTP [3]: 1 IU/L
TERMINAL_BW [4]: 194.9 g
Bas [4]: 0.4%
Eos [4]: 1%
Fbg [4]: 215.4 mg/dL
Hb [4]: 13.6 g/dL
Ht [4]: 39.9%
Lym [4]: 69.2%
MCH [4]: 21.3 pg
MCHC [4]: 34.2%
MCV [4]: 62.3 fL
Mono [4]: 5.2%
Neu [4]: 23.2%
PT [4]: 11.4 s
Plat [4]: 152.2 x10_4/uL
RBC [4]: 640.4 x10_4/ul
Ret [4]: 7.1%
WBC [4]: 43.7 x10_2/uL
KIDNEY_L [4]: 0.9 g
KIDNEY_R [4]: 0.9 g
KIDNEY_TOTAL [4]: 1.8 g
LIVER [4]: 7.8 g
ALP [4]: 873.2 IU/L
ALT [4]: 24.6 IU/L
AST [4]: 82 IU/L
BUN [4]: 14.2 mg/dL
CRE [4]: 0.4 mg/dL
Ca [4]: 10.5 mg/dL
Cl [4]: 104.4 meq/L
DBIL [4]: 0.072 mg/dL
GLC [4]: 239 mg/dL
IP [4]: 10.6 mg/dL
K [4]: 3.7 meq/L
LDH [4]: 257.2 IU/L
Na [4]: 144.8 meq/L
PL [4]: 138 mg/dL
RALB [4]: 3.6 g/dL
TBIL [4]: 0.1 mg/dL
TC [4]: 77.6 mg/dL
TG [4]: 21.2 mg/dL
TP [4]: 5.8 g/dL
gamma-GTP [4]: 0.8 IU/L
